Patent publication US6284879A, “Transport associated protein splice variants” (The General Hospital Corporation, priority 1998, dated 2001)
“Also recorded” adds a separate entry of the source.

Legend:
TAP1/TAP2iso heterodimer = molecular target: T1, TAP1/TAP2iso heterodimer (Homo sapiens, UniProt Q03518+Q03519); experiment: competition with transport of 125I-Peptide RRYQNSTEL in TAP1/TAP2iso transfectants; type: cell-based; settings: TAP1/TAP2iso transfectants
T1 construct: expressed in transfected cells
T1 sequence (Q03519 1-653 isoform Q03519-2 L359K/V379I): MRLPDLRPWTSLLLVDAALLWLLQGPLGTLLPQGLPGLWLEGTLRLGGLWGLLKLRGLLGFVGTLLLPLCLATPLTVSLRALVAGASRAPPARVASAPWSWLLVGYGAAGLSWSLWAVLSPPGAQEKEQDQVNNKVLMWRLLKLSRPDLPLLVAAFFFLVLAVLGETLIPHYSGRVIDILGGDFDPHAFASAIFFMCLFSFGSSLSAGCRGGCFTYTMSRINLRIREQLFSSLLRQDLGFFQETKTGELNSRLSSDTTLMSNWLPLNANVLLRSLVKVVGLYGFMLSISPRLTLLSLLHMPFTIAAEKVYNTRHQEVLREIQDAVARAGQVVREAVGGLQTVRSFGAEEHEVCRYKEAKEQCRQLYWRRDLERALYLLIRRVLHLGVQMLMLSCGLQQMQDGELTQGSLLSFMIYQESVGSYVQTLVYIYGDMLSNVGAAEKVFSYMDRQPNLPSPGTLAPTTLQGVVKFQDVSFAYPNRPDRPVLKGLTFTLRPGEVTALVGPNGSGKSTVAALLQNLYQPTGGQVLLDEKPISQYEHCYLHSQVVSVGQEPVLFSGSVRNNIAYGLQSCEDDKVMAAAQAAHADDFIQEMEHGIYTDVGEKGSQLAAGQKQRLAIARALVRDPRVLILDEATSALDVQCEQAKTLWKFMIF
T1 sequence (Q03518 1-748): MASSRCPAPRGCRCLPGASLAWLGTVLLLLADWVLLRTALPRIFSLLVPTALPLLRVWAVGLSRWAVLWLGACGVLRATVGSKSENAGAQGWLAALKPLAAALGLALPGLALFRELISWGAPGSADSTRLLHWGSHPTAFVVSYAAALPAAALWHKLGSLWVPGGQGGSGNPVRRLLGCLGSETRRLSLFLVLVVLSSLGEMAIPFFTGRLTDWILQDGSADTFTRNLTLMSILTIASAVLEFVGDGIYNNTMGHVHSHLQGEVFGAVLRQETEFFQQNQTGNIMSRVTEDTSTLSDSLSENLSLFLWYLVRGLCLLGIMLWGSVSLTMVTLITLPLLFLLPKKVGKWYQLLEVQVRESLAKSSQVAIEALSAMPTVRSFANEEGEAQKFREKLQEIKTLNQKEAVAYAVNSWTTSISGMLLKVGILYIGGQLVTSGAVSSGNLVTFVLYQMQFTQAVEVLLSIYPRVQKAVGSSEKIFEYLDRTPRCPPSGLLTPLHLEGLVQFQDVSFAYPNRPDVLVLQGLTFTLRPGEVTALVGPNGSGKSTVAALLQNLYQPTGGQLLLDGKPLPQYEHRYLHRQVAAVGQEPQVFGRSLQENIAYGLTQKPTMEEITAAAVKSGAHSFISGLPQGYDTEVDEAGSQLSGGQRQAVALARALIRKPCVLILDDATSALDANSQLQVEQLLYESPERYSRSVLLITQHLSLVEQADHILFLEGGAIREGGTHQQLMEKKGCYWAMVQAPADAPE
Experimental: (§1) Glycosylated ^125 I Peptide […] (SEQ ID NO: 6), Peptide […] (SEQ ID NO: 7), or Peptide […] (SEQ ID NO: 8) was recovered and measured. The peptide translocation assay was performed essentially as previously described (Neefjes et al., Science, 261:769 (1993); and Momburg et al., J. Exp. Med., 179:1613 (1994)). Briefly, 2.5-5.0×10^6 T2 cell (transfected or untransfected) were washed once with incubation buffer (130 mM KCl, 10 mM NaCl, 1 mM CaC2, 2 mM EDTA, 2 mM MgCl2, 5 mM Hepes, pH 7.3) and permeabilized for 10 minutes at 37° C. with streptolysin O (2 IU/ml) (Wellcome, Beckenham, UK) in 50 μl of incubation buffer. After further addition of 10 μl of 100 mM adenosine triphosphate, 10 μl of ^125 I-labeled peptide (~15 pM), and 30 μl of incubation buffer, cells were incubated for an additional 10 minutes at 37° C. Transport was terminated by the addition of 1 ml of 1% NP-40 detergent, after which nuclei were removed by centrifugation and glycosylated peptides were recovered using concanavalin A-Sepharose (Sigma, St. Louis, Mo.) and quantitated with a gamma counter (LKB-Wallac).
Differential peptide selectivity of the TAP1/TAP2 and TAP1/TAP2iso heterodimers was further investigated by competition experiments with ^125 I-labeled Peptide […] (SEQ ID NO: 6) and various unlabeled peptides: Peptide […] (SEQ ID NO: 6); Peptide […] (SEQ ID NO: 7); Peptide […] (SEQ ID NO: 8); Peptide […] (SEQ ID NO: 9), the S1-24 fragment of human adrenocorticotropic hormone); and Peptide […] (SEQ ID NO: 10), residues 22 to 30 (human insulin B chain). The iodinated 9-mer Peptide […] was translocated in the presence of different concentrations of unlabeled competition peptides. The glycosylated peptides were recovered by Con A-Sepharose and quantitated. […] (self); (6B) competition of ^125 I-Peptide […] with Peptide […]; (6C) competition of ^125 I-Peptide […] with Peptide […]; and (6D) competition of ^125 I-Peptide […] with Peptide […]; and (6E) competition of ^125 I-Peptide […] with Peptide […].

TAP1/TAP2 heterodimer = molecular target: T2, TAP1/TAP2 heterodimer (Homo sapiens, UniProt Q03518+Q03519); experiment: competition with transport of 125I-Peptide RRYQNSTEL in TAP1/TAP2 transfectants; type: cell-based
T2 sequence (Q03518 1-748): T1 sequence (Q03518 1-748)
T2 sequence (Q03519 1-686 L359K/V379I): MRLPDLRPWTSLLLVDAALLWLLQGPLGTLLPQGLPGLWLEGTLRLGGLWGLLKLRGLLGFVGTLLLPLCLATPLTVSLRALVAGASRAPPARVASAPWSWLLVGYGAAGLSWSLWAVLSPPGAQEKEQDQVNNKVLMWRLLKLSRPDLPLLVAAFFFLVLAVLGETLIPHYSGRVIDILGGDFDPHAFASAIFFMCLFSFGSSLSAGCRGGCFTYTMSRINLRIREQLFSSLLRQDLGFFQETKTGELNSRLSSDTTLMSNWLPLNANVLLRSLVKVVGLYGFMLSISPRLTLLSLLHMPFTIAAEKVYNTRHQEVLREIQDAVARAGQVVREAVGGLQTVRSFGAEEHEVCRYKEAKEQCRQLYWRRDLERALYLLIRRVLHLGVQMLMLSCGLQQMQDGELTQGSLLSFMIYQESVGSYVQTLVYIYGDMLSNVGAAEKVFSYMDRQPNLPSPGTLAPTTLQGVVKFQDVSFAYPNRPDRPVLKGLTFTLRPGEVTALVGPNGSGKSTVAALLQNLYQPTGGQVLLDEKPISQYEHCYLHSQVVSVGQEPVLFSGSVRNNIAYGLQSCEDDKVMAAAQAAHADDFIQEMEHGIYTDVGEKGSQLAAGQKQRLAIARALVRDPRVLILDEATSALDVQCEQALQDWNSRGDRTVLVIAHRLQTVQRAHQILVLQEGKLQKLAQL
Experimental: as §1
Differential peptide selectivity of the TAP1/TAP2 and TAP1/TAP2iso heterodimers was further investigated by competition experiments with ^125 I-labeled Peptide […] (SEQ ID NO: 6) and various unlabeled peptides: Peptide […] […] The glycosylated peptides were recovered by Con A-Sepharose and quantitated. […]

[1] = tested on: TAP1/TAP2iso heterodimer (compared with TAP1/TAP2); experiment: translocation of 125I-labeled peptides into the ER of permeabilized T2 transfectants; type: cell-based, human; settings: 125I-labeled glycosylated peptide recovered from streptolysin O permeabilized T2 transfectants; comparison in words
Experimental: 10 mM stock solutions of peptides were prepared in dimethyl sulfoxide. Peptides (25 μg) were directly iodinated at unique tyrosine residues with the use of chloramine T (Sigma, St. Louis, Mo.), and free iodine was removed by gel filtration using Sephadex G 10 (Pharmacia) column chromatography.
as §1

[2] = tested on: T1 cells (naturally co-express both TAP2 and TAP2iso); settings: in words
[3] = unlabeled peptide against transport of 125I-Peptide RRYQNSTEL, read-out: median inhibitory concentration (IC50)

SYSMEHGRWGKPVGKKRRPVKVYP
inhibition of transport of Peptide RRYQNSTEL (TAP1/TAP2iso heterodimer; in words): did not inhibit | inhibition of transport of Peptide RRYQNSTEL (TAP1/TAP2 heterodimer; in words): did not inhibit

RRYQNSTEL [Peptide RRYQNSTEL]
IC50 (TAP1/TAP2iso heterodimer; [3]): ~150 nM | amount of translocated peptide, TAP1/TAP2iso compared with TAP1/TAP2 [1]: transported to similar extents; also recorded: translocated with equal efficiency | transportation of test peptides (relative IC50) [2]: equal efficiency | IC50 (TAP1/TAP2 heterodimer; [3]): ~150 nM
